Data as given in patent publication US5248796A, “Taxol derivatives” (Bristol-Myers Squibb Company, priority 1992, dated 1993).
Read-outs that look alike come from different tables or passages of the source.

What was measured:
[1] = system: HCT-116 human colon carcinoma cells; assay: In vitro cytotoxicity, XTT assay, HCT-116 human colon carcinoma cells; type: cell-based; details: read-out: IC50 HCT-116
[2] = system: HCT-116/VM46 human colon carcinoma cells; assay: In vitro cytotoxicity, XTT assay, HCT-116/VM46 cells (teniposide-resistant, multidrug resistance phenotype); type: cell-based; details: for fold resistance relative to HCT116 cells: 4320 min; for IC50: Homo sapiens, read-out: IC50 HCT-116/VM46
[3] = background statement; cited from earlier work
[4] = HCT-116/VM46 relative to HCT116, value in parenthesis
[5] = HCT-116/VM46, teniposide-resistant, multidrug resistance phenotype, XTT, 72 hours, 37° C.

C=C1C2=CC(=O)[C@@]3(C)[C@H]([C@H](OC(=O)c4ccccc4)[C@](O)(C[C@@H]1OC(=O)[C@H](O)[C@@H](NC(=O)c1ccccc1)c1ccccc1)C2(C)C)[C@]1(OC(C)=O)CO[C@@H]1C[C@@H]3O [Example 9, 10-Desacetoxy-11,12-dihydrotaxol-10,12(18)-diene]
IC50 ([1]; HCT-116, 72 h): 38 nM

C=C1C2=CC(=O)[C@]3(C)[C@H](O)C[C@H]4OC[C@@]4(OC(C)=O)[C@H]3[C@H](OC(=O)c3ccccc3)[C@](O)(C[C@@H]1OC(=O)[C@H](O)[C@@H](NC(=O)c1ccccc1)c1ccccc1)C2(C)C [Example 16, 10-Desacetoxy-11,12-dihydro-7-epitaxol-10,12(18)-diene]
IC50 ([1]; HCT-116, 72 h): 40 nM

C=C1C2=CC(=O)[C@]3(C)[C@@H](OC(=O)C(F)Cl)C[C@H]4OC[C@@]4(OC(C)=O)[C@H]3[C@H](OC(=O)c3ccccc3)[C@](O)(C[C@@H]1OC(=O)[C@H](O)[C@@H](NC(=O)c1ccccc1)c1ccccc1)C2(C)C (some centres unmarked) [Example 3, 7-O-chlorofluoroacetyl-10-desacetoxy-11,12-dihydrotaxol-10,12(18)-diene]
IC50 ([1]; HCT-116, 72 h): 38 nM

CC(=O)O[C@@]12CO[C@@H]1C[C@@H](O)[C@@]1(C)C(=O)CC3=C(C)[C@@H](OC(=O)[C@H](O)[C@@H](NC(=O)c4ccccc4)c4ccccc4)C[C@@](O)([C@@H](OC(=O)c4ccccc4)[C@H]21)C3(C)C [Example 13, 7-Epi-10-desacetoxytaxol]
IC50 ([1]; HCT-116, XTT, 72 hours, 37° C.): > 98 nM
fold resistance relative to HCT116 cells [2, 4]: < 32 fold
IC50 [2, 5]: 3090 nM

CC(=O)O[C@H]1C(=O)[C@@]2(C)[C@H]([C@H](OC(=O)c3ccccc3)[C@]3(O)C[C@H](OC(=O)[C@H](O)[C@@H](NC(=O)c4ccccc4)c4ccccc4)C(C)=C1C3(C)C)[C@]1(OC(C)=O)CO[C@@H]1C[C@@H]2O [Taxol]
IC50 ([1]; HCT-116, 72 h): 4 nM
IC50 ([2]; HCT-116/VM46, 72 h): 440 nM
fold resistance relative to HCT116 cells ([2]; human, hct-116/vm46 cells): 124 fold
antitumor activity in in vivo animal models [3]: excellent antitumor activity

CC(=O)O[C@@]12CO[C@@H]1C[C@H](OC(=O)C(F)Cl)[C@@]1(C)C(=O)CC3=C(C)[C@@H](OC(=O)[C@H](O)[C@@H](NC(=O)c4ccccc4)c4ccccc4)C[C@@](O)([C@@H](OC(=O)c4ccccc4)[C@H]21)C3(C)C (some centres unmarked) [Example 4, 7-O-chlorofluoroacetyl-10-desacetoxytaxol]
IC50 ([1]; HCT-116, 72 h): 8 nM

CC(=O)O[C@@]12CO[C@@H]1C[C@H](O)[C@@]1(C)C(=O)CC3=C(C)[C@@H](OC(=O)[C@H](O)[C@@H](NC(=O)c4ccccc4)c4ccccc4)C[C@@](O)([C@@H](OC(=O)c4ccccc4)[C@H]21)C3(C)C [Example 10, 10-Desacetoxytaxol]
IC50 ([1]; HCT-116, XTT, 72 hours, 37° C.): 8 nM
fold resistance relative to HCT116 cells [2, 4]: 153 fold
IC50 [2, 5]: 1220 nM
